Converted amounts (≈) assume the structure as drawn.
Key:
Assay in all cases: In vitro antibacterial evaluation: minimum inhibitory concentration (MIC), broth dilution method
Type in all cases: cell-based
Enterococcus sp. = system: Enterococcus sp.
Procedure: (§1) The minimum inhibitory concentration (MIC), the lowest concentration of the antibiotic which inhibits growth of the test organism, is determined by the broth dilution method using Muller-Hinton II […] (Baltimore Biological Laboratories) following the recommendations of the National Committee for Clinical Laboratory Standards [Methods for dilution antimicrobial susceptibility tests for bacteria that grow aerobically, approved standard M7-A2, National Committee for Clinical Laboratory Standards, Villanova, Pa].
(§2) An inoculum level of 5×10^5 CFU/mL, and a range of antibiotic concentrations (64-0.06 μg/mL) is used. […] The test organisms include a spectrum of Gram-positive bacteria comprised of Staphylococcus sp., Streptococcus sp. and Enterococcus sp. These organisms include recent clinical isolates that are resistant to methicillin, penicillin and/or vancomycin.

Escherichia coli = system: Escherichia coli
Procedure: as §1, §2

Streptococcus sp. = system: Streptococcus sp.
Procedure: as §1, §2

Staphylococcus sp. = settings: broth dilution, 18 hours at 35° C.
Procedure: as §1, §2

**Q.** `CC(c1ccccc1)C1NC(=O)CNC(=O)C(CO)NC(=O)C(C(O)C2CNC(=N)N2C2OC(CO)C(O)C(O)C2O)NC(=O)C(C(O)C2CNC(=N)N2)NC(=O)C(Cc2ccc(OC3OC(CO)C(OC4OC5COC(c6ccc7c(c6)OCCO7)OC5C(O)C4O)C(O)C3O)cc2)NC1=O` (centres unmarked) [Example 149] was tested. Which “MIC Enterococcus faecalis (ATCC 29212)” value (Enterococcus sp.; strain ATCC 29212) did it give?
**A.** 8 µg/mL (≈ 5.55 µM)

**Q.** What about the “MIC Enterococcus faecalis (GC 2242)” value (Enterococcus sp.; strain GC 2242) of the same compound?
**A.** 8 µg/mL (≈ 5.55 µM)

**Q.** And the “MIC Enterococcus faecium (GC 2243)” value (Enterococcus sp.; strain GC 2243)?
**A.** 8 µg/mL (≈ 5.55 µM)

**Q.** And the “MIC Enterococcus faecalis (GC 2691)” value (Enterococcus sp.; strain GC 2691)?
**A.** 8 µg/mL (≈ 5.55 µM)

**Q.** What about the “MIC Enterococcus faecalis (GC 3059)” value (Enterococcus sp.; strain GC 3059) of the same compound?
**A.** 8 µg/mL (≈ 5.55 µM)

**Q.** And the “MIC Enterococcus faecalis (GC 4552)” value (Enterococcus sp.; strain GC 4552)?
**A.** 8 µg/mL (≈ 5.55 µM)

**Q.** And the “MIC Enterococcus faecalis (GC 4553)” value (Enterococcus sp.; strain GC 4553)?
**A.** 8 µg/mL (≈ 5.55 µM)

**Q.** What about the “MIC Enterococcus faecalis (GC 4554)” value (Enterococcus sp.; strain GC 4554) of the same compound?
**A.** 8 µg/mL (≈ 5.55 µM)

**Q.** And the “MIC Enterococcus faecium (GC 4556)” value (Enterococcus sp.; strain GC 4556)?
**A.** 8 µg/mL (≈ 5.55 µM)

**Q.** And the “MIC Enterococcus faecium (GC 4557)” value (Enterococcus sp.; strain GC 4557)?
**A.** 2 µg/mL (≈ 1.39 µM)

**Q.** And the “MIC Enterococcus avium (GC 4558)” value (Enterococcus sp.; strain GC 4558)?
**A.** 8 µg/mL (≈ 5.55 µM)

**Q.** And the “MIC Enterococcus faecalis (GC 6189)” value (Enterococcus sp.; strain GC 6189)?
**A.** 8 µg/mL (≈ 5.55 µM)

**Q.** And the “MIC Escherichia coli (ATCC 25922)” value (Escherichia coli; strain ATCC 25922)?
**A.** >64 µg/mL

**Q.** And the “MIC Escherichia coli (GC 4559)” value (Escherichia coli; strain GC 4559)?
**A.** 64 µg/mL (≈ 44.4 µM)

**Q.** And the “MIC Escherichi coli (GC 4560)” value (Escherichia coli; strain GC 4560)?
**A.** <0.5 µg/mL

**Q.** What about the “MIC Streptococcus pneumoniae (ATCC 6301)” value (Streptococcus sp.; strain ATCC 6301) of the same compound?
**A.** <0.5 µg/mL

**Q.** And the “MIC Streptococcus pneumoniae (GC 1894)” value (Streptococcus sp.; strain GC 1894)?
**A.** <0.5 µg/mL

**Q.** And the “MIC Streptococcus pyogenes (GC 4563)” value (Streptococcus sp.; strain GC 4563)?
**A.** <0.5 µg/mL

**Q.** What about the “MIC Streptococcus agalactiae (GC 4564)” value (Streptococcus sp.; strain GC 4564) of the same compound?
**A.** 1 µg/mL (≈ 0.694 µM)

**Q.** And the “MIC Streptococcus pneumoniae (GC 4565)” value (Streptococcus sp.; strain GC 4565)?
**A.** 2 µg/mL (≈ 1.39 µM)

**Q.** And the “MIC Coagulase Negative Staphylococcus (GC 4547)” value (Staphylococcus sp.; 5×10^5 CFU/mL)?
**A.** 1 µg/mL (≈ 0.694 µM)

**Q.** What about the “MIC Coagulase Negative Staphylococcus (GC 4548)” value (Staphylococcus sp.; 5×10^5 CFU/mL) of the same compound?
**A.** 1 µg/mL (≈ 0.694 µM)

**Q.** And the “MIC Coagulase Negative Staphylococcus (GC 4549)” value (Staphylococcus sp.; 5×10^5 CFU/mL)?
**A.** 1 µg/mL (≈ 0.694 µM)

**Q.** What about the “MIC Coagulase Negative Staphylococcus (GC 4551)” value (Staphylococcus sp.; 5×10^5 CFU/mL) of the same compound?
**A.** 1 µg/mL (≈ 0.694 µM)

**Q.** And the “MIC Coagulase Negative Staphylococcus (GC 6257)” value (Staphylococcus sp.; 5×10^5 CFU/mL)?
**A.** 1 µg/mL (≈ 0.694 µM)

**Q.** What about the “MIC Staphylococcus aureus (ATCC 29213)” value (Staphylococcus sp.; 5×10^5 CFU/mL) of the same compound?
**A.** 2 µg/mL (≈ 1.39 µM)

**Q.** What about the “MIC Staphylococcus aureus (GC 1131)” value (Staphylococcus sp.; 5×10^5 CFU/mL) of the same compound?
**A.** 2 µg/mL (≈ 1.39 µM)

**Q.** What about the “MIC Staphylococcus aureus (GC 3051)” value (Staphylococcus sp.; 5×10^5 CFU/mL) of the same compound?
**A.** 2 µg/mL (≈ 1.39 µM)

**Q.** And the “MIC Staphylococcus aureus (GC 3053)” value (Staphylococcus sp.; 5×10^5 CFU/mL)?
**A.** 4 µg/mL (≈ 2.78 µM)

**Q.** And the “MIC Staphylococcus aureus (GC 4541)” value (Staphylococcus sp.; 5×10^5 CFU/mL)?
**A.** 2 µg/mL (≈ 1.39 µM)

**Q.** What about the “MIC Staphylococcus aureus (GC 4542)” value (Staphylococcus sp.; 5×10^5 CFU/mL) of the same compound?
**A.** 2 µg/mL (≈ 1.39 µM)

**Q.** And the “MIC Staphylococcus aureus (GC 4544)” value (Staphylococcus sp.; 5×10^5 CFU/mL)?
**A.** 2 µg/mL (≈ 1.39 µM)

**Q.** And the “MIC Staphylococcus aureus (GC 4545)” value (Staphylococcus sp.; 5×10^5 CFU/mL)?
**A.** 2 µg/mL (≈ 1.39 µM)

**Q.** What about the “MIC Staphylococcus aureus-SMITH (GC 4543)” value (Staphylococcus sp.; 5×10^5 CFU/mL) of the same compound?
**A.** 2 µg/mL (≈ 1.39 µM)

**Q.** And the “MIC Staphylococcus haemolyticus (GC 4546)” value (Staphylococcus sp.; 5×10^5 CFU/mL)?
**A.** 1 µg/mL (≈ 0.694 µM)

**Q.** What about the “MIC Staphylococcus aureus (ATCC 29213)” value (Staphylococcus sp.; strain ATCC 29213) of the same compound?
**A.** 2 µg/mL (≈ 1.39 µM)

**Q.** What about the “MIC Staphylococcus aureus (GC 1131)” value (Staphylococcus sp.; strain GC 1131) of the same compound?
**A.** 2 µg/mL (≈ 1.39 µM)

**Q.** And the “MIC Staphylococcus aureus (GC 3051)” value (Staphylococcus sp.; strain GC 3051)?
**A.** 2 µg/mL (≈ 1.39 µM)

**Q.** What about the “MIC Staphylococcus aureus (GC 3053)” value (Staphylococcus sp.; strain GC 3053) of the same compound?
**A.** 4 µg/mL (≈ 2.78 µM)

**Q.** What about the “MIC Staphylococcus aureus (GC 4541)” value (Staphylococcus sp.; strain GC 4541) of the same compound?
**A.** 2 µg/mL (≈ 1.39 µM)

**Q.** What about the “MIC Staphylococcus aureus (GC 4542)” value (Staphylococcus sp.; strain GC 4542) of the same compound?
**A.** 2 µg/mL (≈ 1.39 µM)

**Q.** What about the “MIC Staphylococcus aureus-SMITH (GC 4543)” value (Staphylococcus sp.; strain GC 4543) of the same compound?
**A.** 2 µg/mL (≈ 1.39 µM)

**Q.** What about the “MIC Staphylococcus aureus (GC 4544)” value (Staphylococcus sp.; strain GC 4544) of the same compound?
**A.** 2 µg/mL (≈ 1.39 µM)

**Q.** And the “MIC Staphylococcus aureus (GC 4545)” value (Staphylococcus sp.; strain GC 4545)?
**A.** 2 µg/mL (≈ 1.39 µM)

**Q.** And the “MIC Staphylococcus haemolyticus (GC 4546)” value (Staphylococcus sp.; strain GC 4546)?
**A.** 1 µg/mL (≈ 0.694 µM)

**Q.** What about the “MIC Coagulase Negative Staphylococcus (GC 4547)” value (Staphylococcus sp.; strain GC 4547) of the same compound?
**A.** 1 µg/mL (≈ 0.694 µM)

**Q.** What about the “MIC Coagulase Negative Staphylococcus (GC 4548)” value (Staphylococcus sp.; strain GC 4548) of the same compound?
**A.** 1 µg/mL (≈ 0.694 µM)

**Q.** And the “MIC Coagulase Negative Staphylococcus (GC 4549)” value (Staphylococcus sp.; strain GC 4549)?
**A.** 1 µg/mL (≈ 0.694 µM)

**Q.** And the “MIC Coagulase Negative Staphylococcus (GC 4551)” value (Staphylococcus sp.; strain GC 4551)?
**A.** 1 µg/mL (≈ 0.694 µM)

**Q.** And the “MIC Coagulase Negative Staphylococcus (GC 6257)” value (Staphylococcus sp.; strain GC 6257)?
**A.** 1 µg/mL (≈ 0.694 µM)

Source: patent US8247211B2, “Glycopeptide antibiotics” (American Cyanamid Company, priority 2001, dated 2012)
